# Data reported in patent US5866569A, “Naphthalenedione nitric oxide synthase (NOS) inhibitors” (Ontogen Corporation, priority 1997, dated 1999).
# Assays:
# [1] = target: T1, iNOS (Mus musculus, UniProt P29477); assay: Nitric oxide synthase activity assay (Griess reagent), iNOS partially purified from interferon-γ/LPS stimulated RAW 264.7 cells; type: biochemical; conditions: for IC50: 90 minutes at 37° C
# T1 construct: iNOS was isolated from interferon-γ and lipopolysaacharide(LPS) stimulated mouse macrophage cells (RAW 264.7 cells); endogenous in cells; host or cells: RAW 264.7 mouse macrophage cells, induced overnight with interferon-γ and LPS; lysate partially purified on ADP sepharose
# [2] = target: nNOS (Homo sapiens, UniProt P29475); assay: Nitric oxide synthase activity assay, nNOS; type: biochemical
# nNOS, sequence (P29475 whole entry): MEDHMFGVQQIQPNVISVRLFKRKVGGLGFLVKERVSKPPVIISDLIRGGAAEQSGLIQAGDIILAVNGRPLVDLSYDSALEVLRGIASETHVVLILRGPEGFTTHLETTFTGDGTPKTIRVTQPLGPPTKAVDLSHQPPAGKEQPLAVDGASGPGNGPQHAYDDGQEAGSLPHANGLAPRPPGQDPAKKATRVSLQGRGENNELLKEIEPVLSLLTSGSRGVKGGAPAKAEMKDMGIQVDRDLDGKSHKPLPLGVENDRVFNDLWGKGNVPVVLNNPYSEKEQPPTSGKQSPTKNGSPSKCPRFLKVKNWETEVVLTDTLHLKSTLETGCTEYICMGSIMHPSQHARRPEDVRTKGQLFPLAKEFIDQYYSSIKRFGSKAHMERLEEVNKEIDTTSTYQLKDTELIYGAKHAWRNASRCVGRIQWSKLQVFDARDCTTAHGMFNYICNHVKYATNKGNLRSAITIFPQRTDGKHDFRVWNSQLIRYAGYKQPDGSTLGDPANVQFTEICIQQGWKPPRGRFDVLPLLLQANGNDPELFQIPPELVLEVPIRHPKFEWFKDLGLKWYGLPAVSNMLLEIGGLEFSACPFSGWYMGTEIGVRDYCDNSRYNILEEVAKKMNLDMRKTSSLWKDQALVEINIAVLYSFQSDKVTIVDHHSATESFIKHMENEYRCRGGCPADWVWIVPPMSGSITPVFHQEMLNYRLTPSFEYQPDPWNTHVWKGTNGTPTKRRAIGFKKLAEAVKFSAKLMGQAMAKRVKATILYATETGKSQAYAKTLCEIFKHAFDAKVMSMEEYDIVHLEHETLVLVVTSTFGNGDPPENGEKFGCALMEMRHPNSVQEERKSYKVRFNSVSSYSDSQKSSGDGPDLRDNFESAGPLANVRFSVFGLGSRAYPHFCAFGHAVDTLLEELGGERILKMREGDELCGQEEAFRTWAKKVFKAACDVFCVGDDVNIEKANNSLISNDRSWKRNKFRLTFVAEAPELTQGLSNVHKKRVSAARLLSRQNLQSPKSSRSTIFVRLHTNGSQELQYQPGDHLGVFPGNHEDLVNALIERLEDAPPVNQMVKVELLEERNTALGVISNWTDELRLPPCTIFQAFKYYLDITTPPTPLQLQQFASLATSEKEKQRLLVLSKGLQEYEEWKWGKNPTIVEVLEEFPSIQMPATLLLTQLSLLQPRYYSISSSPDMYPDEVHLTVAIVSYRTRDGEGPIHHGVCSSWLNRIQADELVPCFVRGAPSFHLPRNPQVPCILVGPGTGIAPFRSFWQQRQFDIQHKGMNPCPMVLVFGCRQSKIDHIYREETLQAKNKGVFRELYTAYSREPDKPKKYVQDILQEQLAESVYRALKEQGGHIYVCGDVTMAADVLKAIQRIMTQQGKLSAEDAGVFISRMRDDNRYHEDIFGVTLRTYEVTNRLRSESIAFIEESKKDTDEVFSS
SMILES,IC50 [1] [µM],IC50 [2] [nM],"inhibition at 10 µM ([1]; @ 10 μM, read-out: Percentage Inhibition iNOS) [%]"
COC(=O)[C@@H]1CCCN1C1=CC(=O)C(=O)c2ccccc21 [Example 10],44,–,–
O=C1C(=O)c2c(nc3ccccn23)-c2ccccc21 [Example 24],2.3,270,–
COC(=O)[C@H](CCC(=O)N1CCN(C2=CC(=O)C(=O)c3ccccc32)CC1)NC(=O)OCC1c2ccccc2-c2ccccc21 [Example 21],15.6,1900,–
O=C1C=C(N2CCNCC2)c2ccccc2C1=O [Example 12],9.9,2100,–
N=C(N)N1CCN(C2=CC(=O)C(=O)c3ccccc32)CC1 [Example 20],0.67,570,–
O=C1C=C(NCCN2CCOCC2)c2ccccc2C1=O [Example 4],45,–,–
O=C1C=C(N2CCNCC2)c2cc(O)ccc2C1=O [Example 11],–,–,34
O=C1C=C(N2CCN(C(=O)c3ccc([N+](=O)[O-])cc3)CC2)c2ccccc2C1=O [Example 18],6.2,1200,–
CN1CCN(C2=CC(=O)C(=O)c3ccccc32)CC1 [Example 6],5.4,2000,–
O=C1C=C(n2cncn2)c2ccccc2C1=O [Example 13],7.8,–,–
CC(=O)N1CCN(C2=CC(=O)C(=O)c3ccccc32)CC1 [Example 17],5.4,–,–
CCN1CCN(C2=CC(=O)C(=O)c3ccccc32)CC1 [Example 7],8,–,–
CC1CCCCN1CCCNC1=CC(=O)C(=O)c2ccccc21 (stereo not shown) [Example 5],12,–,–
CC(C)(C)OC(=O)NCCNC1=CC(=O)C(=O)c2ccccc21 [Example 15],3.8,1100,–

# Results, then the compound that gave them:
IC50 [1] [µM],IC50 [2] [nM],"inhibition at 10 µM ([1]; @ 10 μM, read-out: Percentage Inhibition iNOS) [%]",SMILES
13,–,–,O=C1C=C(N2CCCc3ccccc32)c2ccccc2C1=O [Example 8]
7.4,–,–,O=C1C=C(c2ccc[nH]2)c2ccccc2C1=O [Example 14]
41,–,–,O=C1C=C(NCCCn2ccnc2)c2ccccc2C1=O [Example 3]
16,–,–,CCN(C1=CC(=O)C(=O)c2ccccc21)c1ccccc1 [Example 2]
2.2,2100,–,O=C1C=C(N2CCN(C(=O)NCc3ccccc3)CC2)c2ccccc2C1=O [Example 19]
27,–,–,O=C1C=C(Nc2ccccc2)c2ccccc2C1=O [Example 1]
11.2,3200,–,NCCNC1=CC(=O)C(=O)c2ccccc21 [Example 16]
17,–,–,O=C1C=C(N2CCc3ccccc32)c2ccccc2C1=O [Example 9]
